Source: US20240215587A1 (priority 2020, published 2024)
Read-outs that look alike come from different tables or passages of the source.

Legend:
[1] = test system: pathogen of bacterial leaf streak (Xanthomonas oryzaes pv. Oryzicola); type: cell-based; details: for Inhibition rate of bacterial growth (%): immersed 24 h, growth observed after 3 d
[2] = test system: rice seeds; details: seed soaking 24 h, tested after 6 d

CCCCCCCCCCCC[N+](C)(C)Cc1ccccc1.[Br-] [Dodecyl dimethyl benzyl ammonium bromide, dodecyl dimethyl benzyl ammonium bromide]
inhibitory effect on the pathogen of bacterial leaf streak of rice (in words) ([1]; dilutions 1:500 to 1:2000): a certain inhibitory effect | Inhibition rate of bacterial growth (%) ([1]; multiple for dilution 500): 41% | Inhibition rate of bacterial growth (%) ([1]; multiple for dilution 1000): 32% | Inhibition rate of bacterial growth (%) ([1]; multiple for dilution 1500): 30% | Inhibition rate of bacterial growth (%) ([1]; multiple for dilution 2000): 23% | Bud length (mm) ([2]; multiple for dilution 1500): 21 mm | Germination rate of seed (%) ([2]; multiple for dilution 1500): 55% | Root length (mm) ([2]; multiple for dilution 1500): 20 mm | Bud length (mm) ([2]; multiple for dilution 2000): 26 mm | Germination rate of seed (%) ([2]; multiple for dilution 2000): 56% | Root length (mm) ([2]; multiple for dilution 2000): 28 mm
